Measurements: PubChem BioAssay AID463203 (Broad Institute, 2010)
The source made the active and inactive calls.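 Rule for the calls: active = more than half of replicate measurements showing over 20% loss of kinase signal relative to plate controls; inconclusive = some but at most half of replicates over 20% loss; inactive = no replicate over 20% signal loss.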

target: Glycogen synthase kinase-3 alpha (Homo sapiens) (UniProt P49840); experiment: concentration-response blocking of human GSK3A – biochemical, luminescence, cell-free homogeneous, retest, dose response (AID 463203); details: GSK-3 alpha enzyme, ADP-Glo luminescence, 60 min
Sequence (P49840 whole entry, looked up): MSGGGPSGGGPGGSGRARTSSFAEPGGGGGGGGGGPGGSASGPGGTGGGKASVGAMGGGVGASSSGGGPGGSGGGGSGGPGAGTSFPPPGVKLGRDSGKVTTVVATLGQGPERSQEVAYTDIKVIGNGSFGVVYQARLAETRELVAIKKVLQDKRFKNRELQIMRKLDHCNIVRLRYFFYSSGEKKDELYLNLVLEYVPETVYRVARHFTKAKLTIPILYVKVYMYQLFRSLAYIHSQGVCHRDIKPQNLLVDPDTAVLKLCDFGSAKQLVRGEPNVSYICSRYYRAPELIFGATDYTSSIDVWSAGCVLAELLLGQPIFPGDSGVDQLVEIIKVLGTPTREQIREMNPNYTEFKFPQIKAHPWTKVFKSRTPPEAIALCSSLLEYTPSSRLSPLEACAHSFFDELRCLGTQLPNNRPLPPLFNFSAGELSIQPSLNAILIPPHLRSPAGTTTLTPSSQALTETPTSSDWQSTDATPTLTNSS

Structure (SMILES) | AC50
C[C@H]1CN([C@@H](C)CO)C(=O)c2cccc(NC(=O)c3cnccn3)c2O[C@@H]1CN(C)S(=O)(=O)c1ccc(F)cc1 | 7.19 µM
CCOc1cc(/C=N/Nc2ncnc(Cl)c2N)ccc1O | 29.6 µM
N#Cc1cc(-c2cccc(Cl)c2)c[nH]c1=O | > 30 µM (inactive)
COC(=O)c1c(NC(=O)CN2C(=O)NC3(CCCCC3C)C2=O)sc2c1CCC2 (stereo not given) | > 30 µM (inactive)
COc1ccc(C(=O)c2sc(Nc3ccccc3)c(C(=O)Nc3ccc(OC)c(OC)c3)c2N)cc1 | > 30 µM (inactive)
CCOC(=O)c1[nH]c2c(c1-c1ccccc1)C(=O)CC(c1ccc(Cl)cc1)C2 (stereo not given) | > 30 µM (inactive)
CC(=O)Nc1ccc(NC(=O)CSc2nnc(-c3ccc4c(c3)OCO4)o2)cc1 | 2.61 µM
O=c1cc(-c2ccco2)oc2c1ccc1ccccc12 | 7.17 µM
CCSc1nc(N)c(C#N)c(-c2ccco2)c1C#N | > 30 µM (inactive)
O=C(CN1CCCCCC1)Nc1ccccc1Oc1ccccc1 | > 30 µM (inactive)
COC(=O)c1c(NC(=O)CN2C(=O)NC3(CCC(C)CC3)C2=O)sc2c1CCC2 (stereo not given) | > 30 µM (inactive)
C(=N\Nc1ncnc2sc3c(c12)CCC3)/c1ccncc1 | 5.85 µM
Cc1ccc(Cn2cc(/C=N/Nc3ccc([N+](=O)[O-])cn3)c3ccccc32)cc1 | > 30 µM (inactive)
C=CCc1cccc(/C=N/n2c(C)nnc2C)c1O | > 30 µM (inactive)
COC(=O)c1ccc(CN2C(=O)NC(CC(C)C)C2=O)cc1 (stereo not given) | > 30 µM (inactive)
S=C(Nc1ccc(Cl)cc1)Nc1cccc2cnccc12 | > 30 µM (inactive)
O=[N+]([O-])c1ccc(NCCCN2CCOCC2)nc1 | > 30 µM (inactive)
CCN1CCN(c2c(Cl)cccc2NC(=O)c2cc3ccccc3o2)CC1 | > 30 µM (inactive)
Cc1cccc(-c2c3c(=O)n(C)c(=O)n(C)c3c3cccnn23)c1 | > 30 µM (inactive)
CCOC(=O)C1=C(C)NC(C)=C(C(=O)OCC)C1c1sccc1C | > 30 µM (inactive)
Clc1ccc(-c2nc3ncccn3c2Nc2ccc3c(c2)OCO3)cc1 | > 30 µM (inactive)
COc1ccccc1NC(=O)CSc1ccc2nnc(-c3ccc(C)cc3)n2n1 | 19.2 µM
COC(=O)c1cc(OC)nc2ccc(Br)cc12 | > 30 µM (inactive)
CCOc1cccc(-c2c(C(=O)N/N=C/c3ccoc3)nnn2-c2nonc2N)c1 | 6.81 µM
CCOC(=O)c1ccc(N2CSC3=C(C#N)C(c4cccs4)CC(=O)N3C2)cc1 (stereo not given) | > 30 µM (inactive)
CC(C)N=C(NC#N)SCc1ccccc1F | > 30 µM (inactive)
CCc1ccccc1NC(=O)CSc1nnc([C@@H](N)Cc2c[nH]c3ccccc23)o1 | > 30 µM (inactive)

Structure (SMILES) | AC50
Cc1nc(S/C(=C/c2ccc(-c3ccc(C(=O)O)cc3)o2)C(=O)O)n[nH]1 | 21.4 µM
COc1ccc(-c2ncncc2-c2ccc(OC)c(OC)c2)c(O)c1 | 10.3 µM
CCOC(=O)c1nnn(-c2nonc2OC)c1-c1ccccc1 | > 30 µM (inactive)
Cc1ccc(CSCCNC(=O)c2ccccc2)cc1 | > 30 µM (inactive)
CC1(C)Cc2c(sc3c2C2=NCCN2C=N3)CS1 | > 30 µM (inactive)
O=C1CNC(=S)N1CCCn1ccnc1 | > 30 µM (inactive)
c1ccc2c(CCNc3ncnc4nc[nH]c34)c[nH]c2c1 | 23.1 µM
CN(C)C(=O)c1ccc(NC(=O)c2cc(-n3cnnc3)ccc2Cl)cc1 | > 30 µM (inactive)
Cn1cnnc1Sc1ccc(CN2CCN(C3CCCC3)C(CCO)C2)o1 (stereo not given) | > 30 µM (inactive)
c1ccc2[nH]c(Cn3nnc4ccccc43)nc2c1 | > 30 µM (inactive)
Cc1ccc2nc(Cl)c(/C=N/Nc3ccc(C(=O)O)cc3)cc2c1 | > 30 µM (inactive)
CCCCCCCCCCOC(=O)Cn1c(COc2ccc(Cl)cc2)[n+](C)c2ccccc21 | > 30 µM (inactive)
Oc1ccc(/C=N/NP(=S)(c2ccccc2)c2ccccc2)cc1O | > 30 µM (inactive)
CN(C(=O)CN1CC=C(c2ccccc2)CC1)c1c(N)n(Cc2ccccc2)c(=O)[nH]c1=O | > 30 µM (inactive)
COC(=O)c1oc2ccc(Cl)cc2c1N | > 30 µM (inactive)
NC(=O)c1nnn(-c2ccccc2)c1N | > 30 µM (inactive)
CCOC(=O)c1ccc(N2CSC3=C(C#N)C(c4ccc(OC)cc4OC)CC(=O)N3C2)cc1 (stereo not given) | > 30 µM (inactive)
CCN1CCN(Cc2c(O)ccc3c2O/C(=C\C=C\c2ccccc2OC)C3=O)CC1 | > 30 µM (inactive)
Nc1c(C(=O)NCc2ccco2)c2nc3ccccc3nc2n1CCN1CCOCC1 | > 30 µM (inactive)
COc1ccc(-n2c(O)c(C(C)=NCCCn3ccnc3)c(=O)[nH]c2=O)cc1 | 19 µM
CCCC(=O)NC(=S)Nc1cccc(C(C)=O)c1 | > 30 µM (inactive)
Cc1cc(N/N=C/c2ccccc2Br)nc2ccccc12 | > 30 µM (inactive)
Cc1nnc(SCC(=O)N(C(C)C)C(C)C)nc1C | > 30 µM (inactive)
CN1CCN(c2nc(NCc3ccco3)nc(N)c2[N+](=O)[O-])CC1 | > 30 µM (inactive)
COc1ccccc1-n1c(O)c(C=NCc2ccc3c(c2)OCO3)c(=O)[nH]c1=O | 31.3 µM
CCOC(=O)c1c(NC(=O)CN2C(=O)NC3(CCC(C)CC3)C2=O)sc(C)c1CC (stereo not given) | > 30 µM (inactive)
COc1ccccc1OCCNC(=O)C1CCN(C(C)=O)CC1 | > 30 µM (inactive)

Structure (SMILES) | AC50
O=c1[nH]c(CN2CCN(CCO)CC2)nc2ccccc12 | > 30 µM (inactive)
COc1ccccc1OCC(=O)Nc1sc2c(c1C(N)=O)CCC2 | > 30 µM (inactive)
CC(C)(C)OC(=O)N1CCC(NC(=O)c2[nH]cnc2C(=O)Nc2ccon2)CC1 | 4.47 µM
CCc1cc2c(NCc3ccco3)ncnc2s1 | > 30 µM (inactive)
Cc1[nH]c2ccccc2c1N=Nc1cccc(C(=O)O)c1 | > 30 µM (inactive)
CC(=O)c1cccc(NC(=O)c2cc(-n3cnnc3)ccc2Cl)c1 | > 30 µM (inactive)
COc1cc2ncc(S(=O)(=O)c3ccccc3)c(N3CCCC(C)C3)c2cc1OC (stereo not given) | > 30 µM (inactive)
CC1=C(C(=O)OCc2ccc3c(c2)OCO3)C(c2cccc([N+](=O)[O-])c2)NC(=O)N1 (stereo not given) | 3.28 µM
O=C(c1ccc(Cn2cnnn2)cc1)N1CCCC(Nc2ccc(F)cc2)C1 (stereo not given) | 16.1 µM
CCn1c(SCC(=O)Nc2ccc(C)cc2)nnc1-c1ccc(O)cc1 | > 30 µM (inactive)
COc1ccc(C2=Nn3c(nnc3-c3ccccc3)SC2)cc1OC | > 30 µM (inactive)
CN(c1ccccc1)c1nc(-n2ccnc2)nc(-n2ccnc2)n1 | 29.3 µM
Cc1ccnc(NC(=O)CCC(=O)N(CC(=O)NCc2ccc(F)cc2)Cc2ccccc2)c1 | 11.4 µM
Cc1cccc(-c2nnc3n2N=C(c2ccccc2)CS3)c1 | > 30 µM (inactive)
O=C(O)C1CCCC[C@H]1C(=O)Nc1ncc([N+](=O)[O-])s1 (stereo not given in full) | > 30 µM (inactive)
CC(=S)/C=C1\Sc2ccccc2N1C | > 30 µM (inactive)
CC(C)c1nnc(NC(=O)CCN2C(=O)c3ccccc3C2=O)s1 | > 30 µM (inactive)
CC1=C(C(=O)Nc2cccc(F)c2)C(c2ccsc2)C2=C(CC(C)(C)CC2=O)N1 (stereo not given) | > 30 µM (inactive)
Cc1cc(C(=O)c2cccs2)c(N)s1 | 15.6 µM
COc1ccc(-n2c(O)c(C=NCCCn3ccnc3)c(=O)[nH]c2=O)cc1 | 5.43 µM
COc1cc(OC)cc(-c2nnc(SCc3c(F)cccc3Cl)o2)c1 | > 30 µM (inactive)
CCOc1ccc(N=C2NC(=O)SC2CC(=O)OC)cc1 (stereo not given) | > 30 µM (inactive)
O=[N+]([O-])c1ccc(-c2nnc(-c3ccccc3)c(NCCCO)n2)cc1 | > 30 µM (inactive)
Cc1ccc(C(=O)Nc2nnc(C)s2)cc1 | > 30 µM (inactive)
Cn1c(=O)c2c([nH]c(=O)n2C)n(Cc2ccccc2)c1=O | > 30 µM (inactive)
Cc1ccc2nc(C3CCCCC3)[nH]c2c1 | > 30 µM (inactive)
CCCCCCCOC(=O)C1=C(C)Nc2ncnn2C1c1cccs1 (stereo not given) | > 30 µM (inactive)

Structure (SMILES) | AC50
O=C(c1ccc(Cl)cc1)c1cnc(Nc2ccccc2)s1 | > 30 µM (inactive)
Nc1nonc1-n1nnc(C(=O)N/N=C/c2ccncc2)c1CSc1ccc(Cl)cc1 | > 30 µM (inactive)
Cc1ccc(N=c2oc3cc(O)ccc3cc2C(N)=O)cc1 | 2.17 µM
CC(=O)c1sc(NC(=O)CN2C(=O)C3CCCCC3C2=O)nc1-c1ccccc1 (stereo not given) | 8.54 µM
CCCCC(=O)Nc1ccc2c(c1)C(=O)NC2=O | 15.6 µM
O=[N+]([O-])c1cnc2nc(-c3ccncc3)nn2c1O | 8.27 µM
CCCCCCN=C(CC)c1c(O)n(CCCC)c(=O)[nH]c1=O | > 30 µM (inactive)
O=[N+]([O-])c1cc(S(=O)(=O)N2CCCC2)ccc1NCCCN1CCOCC1 | > 30 µM (inactive)
CC(=O)c1cc(-c2ccc(F)cc2)n(CCC(=O)Nc2cccc(C)n2)c1C | > 30 µM (inactive)
Clc1cncc(Cl)c1N/N=C/c1ccncc1 | > 30 µM (inactive)
CCCCOC(=O)C1=C(C)Nc2ncnn2C1c1ccc(OC)c(OC)c1 (stereo not given) | > 30 µM (inactive)
COc1ccc(OCc2nc(N)nc(Nc3ccccc3)n2)cc1 | > 30 µM (inactive)
CCN(CC)c1ccc(C2C(C(=O)OC(C)C)C(=O)CC(C)(O)C2C(=O)OC(C)C)cc1 (stereo not given) | > 30 µM (inactive)
Cc1ccc(Sc2nc(-c3ccccc3)nnc2C(F)(F)F)cc1 | > 30 µM (inactive)
O=S(=O)(Nc1ccc(-c2nnc(SCc3ccc(Cl)cc3)o2)cc1)c1ccccc1 | > 30 µM (inactive)
CC(=O)c1sc(Nc2cccc(C)c2)nc1C | > 30 µM (inactive)
Cc1ccc(-n2nnnc2CSc2nnc(-c3ccc(O)cc3)o2)cc1 | 5.51 µM
CC(C(=O)Nc1cccc(Br)c1)c1ccc([N+](=O)[O-])cc1 (stereo not given) | > 30 µM (inactive)
CCCCCCN=C(C)c1c(O)n(CCCC)c(=O)[nH]c1=O | > 30 µM (inactive)
CNS(=O)(=O)c1cccc(C(=O)OCC(=O)Nc2ccc(Cl)cn2)c1 | 6.77 µM
CC(=O)c1ccc(N=Nc2c(C)[nH][nH]c2=O)cc1 | 24.5 µM
S=c1[nH]nc(-c2cc3c(s2)-c2ccccc2CC3)o1 | 22.9 µM
O=C(O)Cn1c(=O)c2c3c(sc2n(Cc2ccc(F)cc2)c1=O)CCCC3 | > 30 µM (inactive)
O=c1cc(-c2ccncc2)oc2c1ccc1ccccc12 | 0.312 µM
